Where “and” joins values, the source holds several entries; their conditions need not be identical. Equal entries are not always repeated. Where two headings read alike, the source gives them in different places.
Tests used:
human AhR = target: T1, human AhR (Homo sapiens, UniProt P35869); test: AhR-responsive luciferase reporter gene induction in recombinant human hepatoma; conditions: for potency relative to TCDD, in words / increased potency compared to tryptanthrin (3): 6h; for AhR-dependent reporter gene activity (efficacy), in words: Figure 3
T1 sequence (P35869 11-848): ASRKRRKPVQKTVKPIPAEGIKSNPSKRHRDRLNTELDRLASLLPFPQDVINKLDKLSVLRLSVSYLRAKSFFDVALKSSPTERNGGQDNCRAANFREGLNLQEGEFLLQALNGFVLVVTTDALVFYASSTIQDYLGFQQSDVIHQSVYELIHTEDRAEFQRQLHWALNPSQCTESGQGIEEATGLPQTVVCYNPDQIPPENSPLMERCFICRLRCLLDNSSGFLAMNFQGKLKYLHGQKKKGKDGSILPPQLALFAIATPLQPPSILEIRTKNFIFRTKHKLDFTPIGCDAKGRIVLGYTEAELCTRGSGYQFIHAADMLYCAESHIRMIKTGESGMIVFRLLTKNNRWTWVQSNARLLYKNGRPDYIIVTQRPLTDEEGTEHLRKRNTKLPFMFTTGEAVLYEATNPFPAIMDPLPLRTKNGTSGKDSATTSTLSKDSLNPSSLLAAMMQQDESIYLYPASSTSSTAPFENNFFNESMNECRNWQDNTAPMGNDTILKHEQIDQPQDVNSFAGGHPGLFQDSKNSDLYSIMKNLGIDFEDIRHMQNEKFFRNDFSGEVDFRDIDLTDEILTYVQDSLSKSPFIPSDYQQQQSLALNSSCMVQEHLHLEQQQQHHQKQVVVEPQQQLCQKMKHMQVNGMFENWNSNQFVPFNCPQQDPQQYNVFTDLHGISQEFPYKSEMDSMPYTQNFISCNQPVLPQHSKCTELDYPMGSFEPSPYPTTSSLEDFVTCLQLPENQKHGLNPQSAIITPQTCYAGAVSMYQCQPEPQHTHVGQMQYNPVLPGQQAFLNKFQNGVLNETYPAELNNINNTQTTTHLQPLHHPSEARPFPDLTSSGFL

mouse AhR [1] = target: T2, mouse AhR (Mus musculus, UniProt P30561); conditions: mouse H1L7.5c3 cells
AhR [2] = target: AhR (Homo sapiens, UniProt P35869); format: cell-based; conditions: HG2L7.5c1 cells, 6h, Figure 4
AhR [3] = conditions: ref [37]; cited from earlier work
mouse AhR [4] = target: T2, mouse AhR; test: cell-based
AhR [5] = conditions: mice or mouse cells; ref [34], [35], [76]; cited from earlier work

T2 sequence (P30561 10-805 limits assumed): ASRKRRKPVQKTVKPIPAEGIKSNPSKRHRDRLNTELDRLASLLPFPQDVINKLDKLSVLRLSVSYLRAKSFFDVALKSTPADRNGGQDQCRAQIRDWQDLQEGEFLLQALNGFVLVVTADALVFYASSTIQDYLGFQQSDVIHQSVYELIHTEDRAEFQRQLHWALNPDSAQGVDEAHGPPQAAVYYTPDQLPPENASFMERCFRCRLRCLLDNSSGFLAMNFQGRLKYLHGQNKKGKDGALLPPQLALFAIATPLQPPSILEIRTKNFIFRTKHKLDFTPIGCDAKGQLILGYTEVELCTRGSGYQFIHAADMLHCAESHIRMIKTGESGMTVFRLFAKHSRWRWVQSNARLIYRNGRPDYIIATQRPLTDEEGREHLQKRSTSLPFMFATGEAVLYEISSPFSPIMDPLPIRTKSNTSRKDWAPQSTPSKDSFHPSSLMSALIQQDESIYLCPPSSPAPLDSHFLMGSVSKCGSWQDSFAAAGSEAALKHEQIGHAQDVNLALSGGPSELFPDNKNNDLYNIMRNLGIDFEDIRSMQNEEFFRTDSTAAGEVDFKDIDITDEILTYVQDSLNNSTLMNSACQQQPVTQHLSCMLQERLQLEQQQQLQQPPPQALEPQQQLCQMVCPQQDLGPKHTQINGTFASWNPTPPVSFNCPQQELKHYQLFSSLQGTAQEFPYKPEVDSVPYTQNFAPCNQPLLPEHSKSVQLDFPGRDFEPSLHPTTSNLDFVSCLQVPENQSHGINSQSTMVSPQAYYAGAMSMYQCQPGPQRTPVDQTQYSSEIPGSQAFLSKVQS
T2 sequence (P11499 whole entry partner): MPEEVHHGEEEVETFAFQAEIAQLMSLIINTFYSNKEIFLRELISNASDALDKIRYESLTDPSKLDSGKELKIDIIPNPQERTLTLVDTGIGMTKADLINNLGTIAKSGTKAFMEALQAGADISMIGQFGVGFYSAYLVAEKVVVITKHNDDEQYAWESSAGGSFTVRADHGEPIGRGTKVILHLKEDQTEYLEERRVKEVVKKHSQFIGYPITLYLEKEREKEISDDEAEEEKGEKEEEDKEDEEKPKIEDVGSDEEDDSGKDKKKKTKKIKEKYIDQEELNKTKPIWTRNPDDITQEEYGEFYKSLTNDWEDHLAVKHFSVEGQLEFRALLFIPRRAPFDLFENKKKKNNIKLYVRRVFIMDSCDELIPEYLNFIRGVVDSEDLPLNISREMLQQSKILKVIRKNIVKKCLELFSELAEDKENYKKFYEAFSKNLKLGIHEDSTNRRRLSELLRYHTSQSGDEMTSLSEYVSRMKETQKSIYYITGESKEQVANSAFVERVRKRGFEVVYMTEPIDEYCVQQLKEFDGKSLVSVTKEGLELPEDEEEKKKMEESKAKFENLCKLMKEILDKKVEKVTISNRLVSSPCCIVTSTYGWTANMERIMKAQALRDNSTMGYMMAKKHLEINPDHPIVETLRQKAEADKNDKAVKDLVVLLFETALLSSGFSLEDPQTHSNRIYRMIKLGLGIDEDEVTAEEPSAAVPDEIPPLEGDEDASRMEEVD
T2 sequence (O08915 whole entry partner): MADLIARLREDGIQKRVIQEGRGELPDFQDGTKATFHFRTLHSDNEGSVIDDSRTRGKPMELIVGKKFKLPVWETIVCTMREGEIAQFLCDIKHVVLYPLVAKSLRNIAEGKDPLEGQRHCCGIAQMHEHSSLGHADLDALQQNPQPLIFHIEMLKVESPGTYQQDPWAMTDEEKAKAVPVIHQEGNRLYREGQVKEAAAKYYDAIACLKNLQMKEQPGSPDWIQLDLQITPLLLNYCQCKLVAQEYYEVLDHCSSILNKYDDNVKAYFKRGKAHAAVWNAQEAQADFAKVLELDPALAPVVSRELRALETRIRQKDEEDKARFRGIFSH

## O=C1Nc2ccc(Cl)cc2C1=C1Nc2ccc(Cl)cc2C1=O [2b, 5,5’-dichloroindirubin]
Human AhR; human HG2L7.5c1 cells
  potency relative to TCDD, in words: comparable to or greater than TCDD

## O=C1Nc2cc(Br)ccc2/C1=C1/Nc2cc(Br)ccc2C1=O [2f, 6,6’-dibromoindirubin]
Human AhR; human HG2L7.5c1 cells
  potency relative to TCDD, in words: comparable to or greater than TCDD

## O=C1c2ccc(Br)cc2-n2c1nc1cc(Br)ccc1c2=O [3f, 3,9-dibromotryptanthrin]
Mouse AhR [1]
  times less potent than TCDD: 4,000 fold and ~ 4,000 fold
Human AhR; human HG2L7.5c1 cells
  increased potency compared to tryptanthrin (3): 350 fold
  potency relative to TCDD, in words: comparable to the potency of TCDD
Human AhR; human HG2L7.5c1 cells, listed as 3,9-dibromotryptanthrin
  potency relative to TCDD, in words: equipotent
Human AhR; human HG2L7.5c1 cells, evaluated at 6h
  EC50: 0.5 nM
Human AhR; human cells
  AhR-dependent reporter gene activity (efficacy), in words: induced maximal AhR-dependent reporter gene activity

## O=C(O)Cc1ccc2c(c1)-n1c(nc3cc(CC(=O)O)ccc3c1=O)C2=O [3g, 3,9-dicarboxymethylotryptanthrin]
Human AhR; human cells
  AhR-dependent reporter gene activity (efficacy), in words: completely inactive

## O=C1c2ccccc2-n2c1nc1cc(Br)ccc1c2=O [3h, 3-bromotryptanthrin]
Mouse AhR [1]
  times less potent than TCDD: 10,000 fold
Mouse AhR [1]; listed as 3-bromotryptanthrin
  times less potent than TCDD: > 10,000 fold
Human AhR; human HG2L7.5c1 cells
  times more potent than TCDD: 10 fold
  increased potency compared to tryptanthrin (3): 3,000 fold
Human AhR; human cells
  AhR-dependent reporter gene activity (efficacy), in words: comparable to that produced by a maximally inducing concentration of TCDD

## Cc1ccccc1N=Nc1ccc(NC(=O)c2ccnn2C)c(C)c1 [CH223191]
AhR [2]
  inhibition of TCDD-dependent induction of luciferase reporter gene expression: inhibit
AhR [3]
  effect of antagonist on AhR activation by indirubin: little effect
  effect of antagonist on ability of TCDD to bind to and activate the AhR: effectively inhibit

## CC(C)n1cnc2c(NCCc3ccc(O)cc3)nc(-c3csc4ccccc34)nc21 [StemRegenin1]
AhR [2]
  inhibition of TCDD-dependent induction of luciferase reporter gene expression: inhibit

## Clc1cc2c(cc1Cl)Oc1cc(Cl)c(Cl)cc1O2 [TCDD, 2,3,7,8-tetrachlorodibenzo-p-dioxin, reference compound]
Mouse AhR [4]
  EC50: 0.1 nM
Human AhR; EC50 for gene induction at 24h of incubation, human cells, 24h incubation
  EC50: 0.3 nM

## O=C1Nc2ccccc2/C1=C1/Nc2ccccc2C1=O [compound 2, Indirubin]
AhR [5]
  less potent than TCDD: ~ 100

## O=C1c2ccccc2-n2c1nc1ccccc1c2=O [compound 3, Tryptanthrin]
Mouse AhR [4]
  EC50: 810 nM
Human AhR
  EC50: 170 nM
